Assay results published in patent publication US20250049801A1, “PHARMACEUTICAL COMBINATIONS FOR USE IN THE TREATMENT OF NEOPLASTIC DISEASES” (priority 2021, published 2025).
Marks after values point to notes of the source that are not given here.

Assays:
other kinase = assay: Kinase specificity, other kinases versus TTK; format: biochemical
tumor-derived TTK = biological target: T1, tumor-derived TTK (Homo sapiens, UniProt P33981); assay: Tumor TTK target occupancy in MDA-MB-231 xenograft-bearing mice; format: in vivo
T1 construct: from tissue; host or cells: MDA-MB-231 xenograft tumours from mice
T1 sequence (P33981 1-857): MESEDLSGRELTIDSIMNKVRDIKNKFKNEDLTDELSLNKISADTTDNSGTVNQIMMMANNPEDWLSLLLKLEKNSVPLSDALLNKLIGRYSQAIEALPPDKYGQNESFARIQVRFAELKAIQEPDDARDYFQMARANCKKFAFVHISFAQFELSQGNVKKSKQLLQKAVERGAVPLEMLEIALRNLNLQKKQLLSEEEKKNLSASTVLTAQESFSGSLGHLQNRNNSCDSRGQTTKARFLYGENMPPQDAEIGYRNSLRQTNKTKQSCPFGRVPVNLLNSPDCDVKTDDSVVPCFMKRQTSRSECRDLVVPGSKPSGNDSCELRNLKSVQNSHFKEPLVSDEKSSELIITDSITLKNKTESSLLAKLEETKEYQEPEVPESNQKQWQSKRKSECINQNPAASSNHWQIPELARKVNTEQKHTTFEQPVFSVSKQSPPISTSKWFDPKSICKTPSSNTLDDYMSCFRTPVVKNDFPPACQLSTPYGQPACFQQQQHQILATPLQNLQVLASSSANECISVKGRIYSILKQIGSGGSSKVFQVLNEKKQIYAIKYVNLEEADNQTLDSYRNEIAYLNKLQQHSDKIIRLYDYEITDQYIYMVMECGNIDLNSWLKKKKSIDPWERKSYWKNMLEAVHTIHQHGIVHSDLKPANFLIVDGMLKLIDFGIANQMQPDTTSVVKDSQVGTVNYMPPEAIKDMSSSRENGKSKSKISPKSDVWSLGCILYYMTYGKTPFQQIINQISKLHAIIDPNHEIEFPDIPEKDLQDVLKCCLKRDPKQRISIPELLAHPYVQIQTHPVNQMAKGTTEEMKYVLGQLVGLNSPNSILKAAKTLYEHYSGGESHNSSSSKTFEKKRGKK
Protocol: Prolonged TTK target occupancy was also measured in tumors derived from MDAMB-231 xenograft-bearing mice treated with intermittent i.v. dosing regimen of compound of formula (I). […]

TTK [1] = biological target: T2, TTK (Homo sapiens, UniProt P33981); assay: Radiometric protein kinase assay (33PanQinase Activity Assay), TTK; format: biochemical; settings: radiometric 33PanQinase assay; ATP 0.3 mM
T2 construct: TTK and PLK1 protein kinases were expressed as recombinant full-length GST-fusion proteins; GST
T2 sequence (P33981 1-857): T1 sequence (P33981 1-857)
Protocol: (§1) A radiometric protein kinase assay (33PanQinase® Activity Assay) was used for measuring the kinase activity of TTK and PLK1. TTK and PLK1 protein kinases were expressed as recombinant full-length GST-fusion proteins. The reaction cocktail contained […] of enzyme/substrate mixture. The assay for the protein kinases contained 70 mM HEPES-NaOH pH 7.5, 3 mM MgCl2, 3 mM MnCl2, 3 mM Na-orthovanadate, 1.2 mM DTT, […] PEG20000, ATP (0.3 mM for TTK and 1 mM for PLK1), [γ-33P]-ATP (approx. 8×10^5 cpm per well), protein kinase (15.8 nM for TTK and 5 nM for PLK1), and substrate (1 mg/50 mL for TTK and 2 mg/50 mL for PLK1). All assays were performed with a Beckman-Coulter/SAGIAN™ Core System. The fitting model for the IC50 determinations was “Sigmoidal response (variable slope)” with parameters “top” fixed at 100% and “bottom” at 0%. The fitting method used was a least squares fit.

TTK [2] = biological target: T2, TTK; assay: TTK kinase assay as described in WO 2015/155042; format: biochemical; settings: when measured as described in WO 2015/155042
biotinylated PLK1 = biological target: T3, biotinylated PLK1 (Homo sapiens, UniProt P53350); assay: Target residence time assay (Biacore T200 surface plasmon resonance), PLK1; format: binding; settings: SPR, 22° C.
T3 construct: biotin (biotinylated)
Protocol: (§2) The affinity, i.e. the equilibrium dissociation constant (KD) (referred to as residence times), of the compound of formula (I) against TTK and PLK1 were determined using a Biacore T200™ surface plasmon resonance instrument using recombinant expressed TTK kinase domain (amino acids 519-808) or biotinylated PLK1. The immobilization of TTK was performed as described in Maia et al. Annals of Oncology, 2015; 26:2180-2192. The immobilization of biotinylated PLK1 was performed as described in Willemsen-Seegers et al. Journal of Molecular Biology, 2017; 429:574-586. The subsequent single cycle kinetic assays were performed at 22° C. using a compound concentration gradient of 1, 3.6, 10, 31.6 and 100 nM for TTK and 10, 31.6, 100, 316 and 1000 nM for PLK1, a contact time of 100 s and a flow rate of […]. The dissociation period was 1200-1800 s and a correction for an unstable surface using a blank run with buffer was performed.

[3] = biological target: T4, TTK kinase domain (amino acids 519-808) (Homo sapiens, UniProt P33981); assay: Target residence time assay (Biacore T200 surface plasmon resonance), TTK; format: binding; settings: SPR, 22° C.
T4 construct: recombinant expressed TTK kinase domain (amino acids 519-808)
T4 sequence (P33981 519-808): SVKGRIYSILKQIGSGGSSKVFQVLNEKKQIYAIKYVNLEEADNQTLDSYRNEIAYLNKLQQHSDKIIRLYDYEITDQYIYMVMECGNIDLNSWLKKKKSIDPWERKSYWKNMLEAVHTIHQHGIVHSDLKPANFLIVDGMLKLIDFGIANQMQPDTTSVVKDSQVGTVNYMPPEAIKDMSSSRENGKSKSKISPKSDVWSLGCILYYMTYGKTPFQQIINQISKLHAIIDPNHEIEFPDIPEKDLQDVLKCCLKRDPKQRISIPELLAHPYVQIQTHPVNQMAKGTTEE
Protocol: as §2

[4] = mouse, in vivo
Protocol: Dosing was delayed by 1 day in any mice showing transient body weight loss of ≥ 10% at any time point.
(§3) Body weights and tumor volumes were determined at least twice per week, the latter by measuring two dimensions with calipers and applying the formula “V=(L×W2)/2”, where V is the tumor volume, and L and W are the tumor length and width respectively. […] Mice were also culled if the BWL was determined to be >15% for 3 consecutive days. Any mice with >10% BWL, automatically were dosed on one of the following days, as soon as the BWL returned to <10%. All animal protocols were reviewed and approved by the relevant local committees in China, where the studies were performed.

[5] = test system: patient-derived xenograft (PDX) triple negative breast cancer (TNBC) tumor, BR1282; assay: First PDX study, efficacy; format: in vivo, BALB/c nude mice; settings: for Efficacy: ΔT/C Day 16: mean change in tumor volume on day 16; for Efficacy: ΔT/C Day −0 up to Day 42: mean rate of growth (k), exponential curve fits, day 0 to culling day or day 42; for Cures Day 97: no tumors detectable by H&E staining of skin on day 97, N=8 mice/group
Protocol: (§4) The compound of formula (I) was supplied as a powder by Basilea Pharmaceutica International Ltd. and was prepared freshly as a solution in Ethanol: PEG400:Citric acid 20 mM, at a ratio of 1:1:8, for immediate administration.
(§5) The statistical significance of efficacy were determined in two different ways using a) the endpoint on day 16 or day 13 depending on the study when it was necessary to cull the vehicle group because of tumor volume exceeding 1500 mm3, and b) at the endpoint of day 42 or day 51 depending on the study (one week after the final treatment) when exponential curve fits were applied to estimate the rates of tumor growth in the different groups. Finally, the number of complete cures was compared across the groups following confirmation by histopathology within the first study. The degree of an effect was quantified by the delta (Δ) treated/control ratio (ΔT/C) and the statistical significance of the effect was determined by a one-way analysis of variance (1W-ANOVA) with Holms-Sidak applied post-hoc for multiple determinations, where a p-value of <0.05 was considered statistically significant. In addition, an assessment of synergy was made based upon the Clarkes Combination Index (CCI), where the CCI=ΔT/CAB−(ΔT/CA*ΔT/CB) in which A and B are two different compounds, where CCI<−0.1 indicates synergy (or a positive interaction), +0.1 (antagonism, or a negative interaction) and between −0.1 and +0.1 indicates additivity (no interaction); see O'Reilly et al. Anti Cancer Drugs 2011; 22:58-78.

[6] = test system: patient-derived tumor xenografts, including TNBC and hepatocellular cancer (HCC) models; assay: Patient-derived tumor xenografts in mice (data not shown); format: in vivo
From the text: (§6) In cellular systems, the compound of formula (I) has high potency against sensitive cells.

[7] = Single-dose pharmacokinetic drug-drug interaction experiment; format: in vivo; settings: 8 mg/kg i.v., 1 h after paclitaxel (15 mg/kg, i.v.); non tumor-bearing mice
PLK1 [8] = biological target: T5, PLK1 (Homo sapiens, UniProt P53350); assay: PLK1 kinase assay as described in WO 2015/155042; format: biochemical; settings: when measured as described in WO 2015/155042
[9] = test system: triple negative breast cancer cell lines; assay: 5-day anti-proliferative screen of 18 triple negative breast cancer cell lines; format: cell-based; settings: 120 h, 18 different triple negative breast cancer cell lines, read-out: median GI50
From the text: as §6

TNBC BR1282 PDX model = assay: Second PDX study, efficacy; format: in vivo, BALB/c nude mice; settings: for Efficacy: ΔT/C Day 13: mean change in tumor volume on day 13; for Efficacy: ΔT/C Day 0 up to day 51: mean rate of growth (k), day 0 to culling day or day 51; for Cures By day 148: no tumors detectable by pathological confirmation at end of observation period, 8 mice per group
Protocol: as §4, §5

PLK1 [10] = biological target: T5, PLK1; assay: Radiometric protein kinase assay (33PanQinase Activity Assay), PLK1; format: biochemical; settings: radiometric 33PanQinase assay; ATP 1 mM
Protocol: as §1

[11] = for Tolerability (Day 16) ΔBW (%) / Tolerability (Day 16) ΔT/C: mouse, in vivo
Protocol: In a first PDX study female BALB/c nude mice (CrownBio) of at least 20 g body weight were subcutaneously (s.c.) inoculated in the right flank with tumor fragments (3*3*3 mm) from stock mice bearing the patient-derived xenograft (PDX) triple negative breast cancer (TNBC) tumor, BR1282. Randomization into 5 different treatment groups (8 mice per group) was made when the mean tumor size was 150-200 mm3. […] The fifth group received both vehicles using the time interval of 4 h and all groups were dosed twice via the tail vein. Dosing was delayed by 1 day in any mice showing transient body weight loss of ≥ 10% at any time point.
as §3

T5 sequence (P53350 whole entry): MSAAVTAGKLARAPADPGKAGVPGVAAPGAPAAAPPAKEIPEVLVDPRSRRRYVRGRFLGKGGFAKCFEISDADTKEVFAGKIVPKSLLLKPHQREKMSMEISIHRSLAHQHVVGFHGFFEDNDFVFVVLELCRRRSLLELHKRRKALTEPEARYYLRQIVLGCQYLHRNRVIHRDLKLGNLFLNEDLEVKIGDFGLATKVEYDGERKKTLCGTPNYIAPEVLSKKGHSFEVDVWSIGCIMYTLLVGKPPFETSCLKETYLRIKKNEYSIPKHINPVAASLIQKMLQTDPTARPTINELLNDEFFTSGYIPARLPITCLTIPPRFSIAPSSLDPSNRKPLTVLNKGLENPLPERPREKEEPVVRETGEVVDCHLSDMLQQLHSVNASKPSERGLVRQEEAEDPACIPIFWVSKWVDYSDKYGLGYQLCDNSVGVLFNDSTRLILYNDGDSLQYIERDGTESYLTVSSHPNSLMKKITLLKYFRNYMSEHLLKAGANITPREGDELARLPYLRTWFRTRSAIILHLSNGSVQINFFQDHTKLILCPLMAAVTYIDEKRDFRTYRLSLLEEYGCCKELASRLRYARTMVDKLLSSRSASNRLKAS
T3 sequence (P53350 whole entry): as above

Compound	Tolerability (Day 13) ΔBW (%) [4]	Tolerability (Day 13) ΔT/C [4]	Efficacy: ΔT/C Day 16 [5]	Efficacy: ΔT/C Day −0 up to Day 42 [5]	Cures Day 97 [5]	Efficacy: ΔT/C Day 13 (TNBC BR1282 PDX model)	Efficacy: ΔT/C Day 0 up to day 51 (TNBC BR1282 PDX model)	Cures By day 148 (TNBC BR1282 PDX model)	Tolerability (Day 16) ΔBW (%) [11]	Tolerability (Day 16) ΔT/C [11]	other results
COc1cc(N2CCNCC2)ccc1Nc1ncc2c(n1)-n1ccc(C(=O)Nc3c(C)cccc3C)c1CC2 [Compound of formula (I)]	−1.9 ± 1.4%	0.93	0.45	0.28***	0/8	0.32	−0.02***	0/8	−0.3 ± 1.4%	1.01	other kinase IC50s higher than those for TTK (other kinase): at least 10 fold; time TTK completely occupied after last dose (tumor-derived TTK; i.v. twice-weekly, MTD dose): at least 72 h; time tumor-derived TTK fully drug-occupied after last administration (tumor-derived TTK; i.v. weekly MTD dosing): up to 6 days; IC50 (TTK [1]): 7 nM; IC50 (TTK [2]): 0.4 nM; target-residency on PLK1 (biotinylated PLK1): a few minutes; target-residency on TTK [3]: > 12 h; activity against patient-derived tumor xenografts [6]: significant activity; change in plasma AUC of the compound of formula (I) [7]: slight nonsignificant increase; IC50 (PLK1 [8]): 46 nM; GI50 [9]: 35 nM; animals indicating regression (TNBC BR1282 PDX model; day 51): 3/8; IC50 (PLK1 [10]): 72 nM; mortality ([11]; day 21, considered non-drug-related): one mouse died
CC(=O)O[C@H]1C(=O)[C@@]2(C)[C@H]([C@H](OC(=O)c3ccccc3)[C@]3(O)C[C@H](OC(=O)[C@H](O)[C@@H](NC(=O)c4ccccc4)c4ccccc4)C(C)=C1C3(C)C)[C@]1(OC(C)=O)CO[C@@H]1C[C@@H]2O [Paclitaxel, reference compound]	4.9 ± 0.3%	1.02	0.24	0.41***	0/8	0.48	0.63***	0/8	−1.0 ± 1.2%	1.00	
